System: normal human lung fibroblasts
Experiment: Ribosomal profiling: translational efficiency in TGFβ-treated fibroblasts
Type: cell-based
Conditions: TGFβ-treated fibroblasts
Protocol: Ribosomal profiling allows for measurement of changes in transcription and translation on a genome-wide basis accompanying TGFβ-dependent transformation of fibroblasts to myofibroblasts. Ribosomal profiles of the TGFβ-treated fibroblasts from Example 1 (about 6×10^6 cells/10 cm plate) were prepared and analyzed for changes in translational efficiencies with respect to potential disease-associated cellular changes accompanying this TGFβ-induced transformation.
Briefly, cells were washed with cold PBS supplemented with cycloheximide and lysed with 1× mammalian cell lysis buffer for 10 minutes on ice. Lysates were clarified by centrifugation for 10 minutes at 14,000 rpm and supernatants were collected. Cell lysates were processed to generate ribosomal protected fragments and total mRNA according to the instructions included with the ARTseq Ribosome Profiling Kit (Illumina, San Diego, Calif.). Sequencing of total RNA (RNA) and of ribosome-protected fragments of RNA (RPF) was carried out using RNA-Seq methodology according to the manufacturer's instructions (Illumina). To analyze the ribosomal profiles, RNA-Seq reads were processed with tools from the FASTX-Toolkit (fastq_quality_trimmer, fastx_clipper and fastx_trimmer). Unprocessed and processed reads were evaluated for a variety of quality measures using FastQC, and processed reads were mapped to the human genome using TopHat (see, e.g., Trapnell et al., Bioinformatics 25:1105, 2009). Gene-by-gene assessment of the number of fragments strictly and uniquely mapping to the coding region of each gene was conducted using HTSeq-count, a component of the HTSeq package. […] Genes with low counts in either RPF or RNA were excluded from differential analyses. Pathway and network analyses of differential data were conducted using Ingenuity Pathway Analysis (IPA).

COC(=O)[C@H]1[C@@H](O)[C@@]2(O)c3c(OC)cc(O[C@@H]4O[C@@H]([C@H](O)CO)CO[C@H]4OC)cc3O[C@@]2(c2ccc(OC)cc2)[C@@H]1c1ccccc1 [Silvestrol]
− (− = <0.9): renormalizing the translational profile of LAMP5 (ENSG00000125869) | renormalizing the translational profile of NECAB3 (ENSG00000125967) | renormalizing the translational profile of COX7C (ENSG00000127184) | renormalizing the translational profile of LIF (ENSG00000128342) | renormalizing the translational profile of MTUS1 (ENSG00000129422) | renormalizing the translational profile of ARHGEF6 (ENSG00000129675) | renormalizing the translational profile of RPL36 (ENSG00000130255) | renormalizing the translational profile of GDF15 (ENSG00000130513) | renormalizing the translational profile of ASS1 (ENSG00000130707) | renormalizing the translational profile of EIF2S3 (ENSG00000130741) | renormalizing the translational profile of RPL27 (ENSG00000131469) | renormalizing the translational profile of RARRES3 (ENSG00000133321) | renormalizing the translational profile of BIVM (ENSG00000134897) | renormalizing the translational profile of ATP5G2 (ENSG00000135390) | renormalizing the translational profile of KRT7 (ENSG00000135480) | renormalizing the translational profile of HNRNPA1 (ENSG00000135486) | renormalizing the translational profile of IL6 (ENSG00000136244) | renormalizing the translational profile of RPL35 (ENSG00000136942) | renormalizing the translational profile of NOV (ENSG00000136999) | renormalizing the translational profile of IER3 (ENSG00000137331) | renormalizing the translational profile of RPLP1 (ENSG00000137818) | renormalizing the translational profile of PAQR5 (ENSG00000137819) | renormalizing the translational profile of AOX1 (ENSG00000138356) | renormalizing the translational profile of FGF5 (ENSG00000138675) | renormalizing the translational profile of PDE5A (ENSG00000138735) | renormalizing the translational profile of DIAPH3 (ENSG00000139734) | renormalizing the translational profile of RPL13A (ENSG00000142541) | renormalizing the translational profile of RPL11 (ENSG00000142676) | renormalizing the translational profile of PLEKHA6 (ENSG00000143850) | renormalizing the translational profile of RPL32 (ENSG00000144713) | renormalizing the translational profile of RPL37 (ENSG00000145592) | renormalizing the translational profile of BTF3 (ENSG00000145741) | renormalizing the translational profile of HIGD2A (ENSG00000146066) | renormalizing the translational profile of CREB5 (ENSG00000146592) | renormalizing the translational profile of DENND2A (ENSG00000146966) | renormalizing the translational profile of RPL10 (ENSG00000147403) | renormalizing the translational profile of EIF3H (ENSG00000147677) | renormalizing the translational profile of RPL7A (ENSG00000148303) | renormalizing the translational profile of EIF3M (ENSG00000149100) | renormalizing the translational profile of FAU (ENSG00000149806) | renormalizing the translational profile of CCDC102B (ENSG00000150636) | renormalizing the translational profile of FRMD4A (ENSG00000151474) | renormalizing the translational profile of PLEKHH2 (ENSG00000152527) | renormalizing the translational profile of OBSCN (ENSG00000154358) | renormalizing the translational profile of OXA1L (ENSG00000155463) | renormalizing the translational profile of C9orf85 (ENSG00000155621) | renormalizing the translational profile of RPL30 (ENSG00000156482) | renormalizing the translational profile of EEF1A1 (ENSG00000156508) | renormalizing the translational profile of RPL8 (ENSG00000161016) | renormalizing the translational profile of RPL26 (ENSG00000161970) | renormalizing the translational profile of RPL29 (ENSG00000162244) | renormalizing the translational profile of CAMK2N1 (ENSG00000162545) | renormalizing the translational profile of IGFBP7 (ENSG00000163453) | renormalizing the translational profile of RPL22L1 (ENSG00000163584)
++ (++ = 1.5 to 2.0): renormalizing the translational profile of ABCA6 (ENSG00000154262)
+ (+ = 0.9 to 1.5): renormalizing the translational profile of MATN3 (ENSG00000132031) | renormalizing the translational profile of KDM6B (ENSG00000132510) | renormalizing the translational profile of DDX60 (ENSG00000137628) | renormalizing the translational profile of GAS2L3 (ENSG00000139354) | renormalizing the translational profile of MYO19 (ENSG00000141140) | renormalizing the translational profile of HOMER1 (ENSG00000152413) | renormalizing the translational profile of ANKH (ENSG00000154122) | renormalizing the translational profile of ADAMTS5 (ENSG00000154736) | renormalizing the translational profile of NRG1 (ENSG00000157168)
+++ (+++ = >2.0): renormalizing the translational profile of PPARG (ENSG00000132170)

From patent publication US9993494B2, “Compositions and methods for treating fibrotic disease” (eFFECTOR Therapeutics, Inc., priority 2014, dated 2018)
